Assay results as given in PubChem BioAssay AID2060615 (Molecular Pharmacology Branch, DTP, NCI, 2025).
Several values for one entry are separate records, joined by “and”; a condition that tells them apart may be missing. Equal values may be shown once.

System: 496974-208-R-J2-PDC complex spheroids, growth % test/control
Test: Anticancer human tumor 496974-208-R-J2-PDC patient-derived pancreatic carcinoma cell line growth inhibition [CLK]
Conditions: for viability, T/C: stronger effect = lower value
Method in brief: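 Patient-derived tumor cells grown as complex spheroids with HUVEC endothelial cells and mesenchymal stem cells, treated with drug combinations. Concentrations descend in half-log steps from near clinical Cmax, or from 10 microM if Cmax unknown.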
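Also: spheroids exposed to the drugs for 7 days before readout.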
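For viability, T/C in this document: 100% = DMSO vehicle control wells.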

In the case of `COc1c(OCCCN2CCOCC2)ccc2c3n(c(=NC(=O)c4cnc(N)nc4)nc12)CCN3`, the viability, T/C (compound 0.00316 µM) is reported as 93.4% and 97.4%, the viability, T/C (compound 0.01 µM) is reported as 64.2% and 60% and the viability, T/C (compound 0.0316 µM) is reported as 32.8% and 28.6%. The viability, T/C (compound 0.1 µM) was 9.98% and 14.7%, the viability, T/C (compound 0.316 µM) was 7.88% and 8.03% and the viability, T/C (compound 1 µM) was 3.01% and 3.54%. The IC50 (curve of compound) was 0.0167 µM and 0.0144 µM.

In the case of `CC(CO)NC(=O)c1cc(-c2ccc(Cl)cc2)nn(-c2cnn(C)c2)c1=O` (centres undefined) + CN1CCN(c2cc(C(=O)Nc3cc4cc(-c5cnn(C)c5)ccc4cn3)ccn2)CC1, the IC50 (curve of first compound, second compound 0.0316 µM) is reported as > 10 µM, the IC50 (curve of first compound, second compound 0.1 µM) is reported as > 10 µM and the IC50 (curve of first compound, second compound 0.316 µM) is reported as < 0.0316 µM. The IC50 (curve of first compound, second compound 1 µM) was < 0.0316 µM, the IC50 (curve of first compound, second compound 3.16 µM) was < 0.0316 µM and the IC50 (curve of first compound, second compound 10 µM) was < 0.0316 µM. For the same molecule, the viability, T/C (second compound 0.0316 µM, first compound 0.0316 µM) was 100%, the viability, T/C (second compound 0.0316 µM, first compound 0.1 µM) was 103% and the viability, T/C (second compound 0.0316 µM, first compound 0.316 µM) was 104%. For the same molecule, the viability, T/C (second compound 0.0316 µM, first compound 1 µM) was 97.6%, the viability, T/C (second compound 0.0316 µM, first compound 3.16 µM) was 79.8% and the viability, T/C (second compound 0.0316 µM, first compound 10 µM) was 53.3%. For the same molecule, the viability, T/C (second compound 0.1 µM, first compound 0.0316 µM) was 80.9%, the viability, T/C (second compound 0.1 µM, first compound 0.1 µM) was 90.1% and the viability, T/C (second compound 0.1 µM, first compound 0.316 µM) was 73.7%. It also gave a viability, T/C (second compound 0.1 µM, first compound 1 µM) of 80%, a viability, T/C (second compound 0.1 µM, first compound 3.16 µM) of 71.3% and a viability, T/C (second compound 0.1 µM, first compound 10 µM) of 55%. For the same molecule, the viability, T/C (second compound 0.316 µM, first compound 0.0316 µM) was 6.47%, the viability, T/C (second compound 0.316 µM, first compound 0.1 µM) was 7.73% and the viability, T/C (second compound 0.316 µM, first compound 0.316 µM) was 7.09%. For the same molecule, the viability, T/C (second compound 0.316 µM, first compound 1 µM) was 6.92%, the viability, T/C (second compound 0.316 µM, first compound 3.16 µM) was 7.31% and the viability, T/C (second compound 0.316 µM, first compound 10 µM) was 10.6%. The viability, T/C (second compound 1 µM, first compound 0.0316 µM) was 0.48%, the viability, T/C (second compound 1 µM, first compound 0.1 µM) was 0.63% and the viability, T/C (second compound 1 µM, first compound 0.316 µM) was 0.82%. It also gave a viability, T/C (second compound 1 µM, first compound 1 µM) of 0.41%, a viability, T/C (second compound 1 µM, first compound 3.16 µM) of 0.57% and a viability, T/C (second compound 1 µM, first compound 10 µM) of 3.08%. For the same molecule, the viability, T/C (second compound 3.16 µM, first compound 0.0316 µM) was 0.49%, the viability, T/C (second compound 3.16 µM, first compound 0.1 µM) was 0.49% and the viability, T/C (second compound 3.16 µM, first compound 0.316 µM) was 0.55%. For the same molecule, the viability, T/C (second compound 3.16 µM, first compound 1 µM) was 0.4%, the viability, T/C (second compound 3.16 µM, first compound 3.16 µM) was 1% and the viability, T/C (second compound 3.16 µM, first compound 10 µM) was 0.92%. The viability, T/C (second compound 10 µM, first compound 0.0316 µM) was 0.3%, the viability, T/C (second compound 10 µM, first compound 0.1 µM) was 0.27% and the viability, T/C (second compound 10 µM, first compound 0.316 µM) was 1.54%. It also gave a viability, T/C (second compound 10 µM, first compound 1 µM) of 0.29%, a viability, T/C (second compound 10 µM, first compound 3.16 µM) of 0.35% and a viability, T/C (second compound 10 µM, first compound 10 µM) of 1.18%.
